Where two headings read alike, the source gives them in different places.
How the values were obtained:
[1] = administered orally on an empty stomach; cited from earlier work
[2] = system: platelet count
Experimental: (§1) Four different loading doses were tested, which were: 7, 14, 28 and 42 mg, and the maintenance doses were half of the respective loading dose. The loading dose was administered prior to chemoradiation, and for the duration of treatment the respective maintenance doses were administered twice a week (i.e., a patient administered a 7 mg loading dose received two separate maintenance doses of 3.5 mg each week for 8 weeks.) The primary focus of this study is to determine the maximum tolerated dose of four dose levels. […] All subjects have a diagnosis of glioblastoma (WHO grade IV) and mean age is 62.7 years (range 54 years to 80 years).
In patients receiving temozolomide the standard of care is to stop therapy for patients developing a platelet count below 100,000.

[3] = TMZ in combination with RT; cited from earlier work
[4] = stored at 27° C.; cited from earlier work
[5] = system: cognitive function; conditions: eight subjects, before vs after concurrent chemoradiation (8 weeks)
Experimental: as §1
Cognitive testing included Hopkins Verbal Learning Test-Revised (HVLT-R), Trails Making A and B Tests, and Controlled Oral Wood Association Test (COWA). […] This is notable because these are the primary cognitive tests that reveal poorer performance in multiple brain mestastases patients after whole brain radiation therapy.

[6] = system: mucositis
From the text: Animals: For normal tissue studies, six-to-eight week-old female C57B1/6 mice were used (Jackson Laboratory, Bar Harbor, ME). […] Mice were group housed in a barrier facility and allowed to acclimate to their new environment for at least one week before experiments.
Mucositis evaluation using fluorescence molecular tomography: As reported previously, we used ProSense 750EX (Perkin Elmer, Waltham, MA) to detect mucositis. […] The ProSense 750EX signal was quantified using TrueQuant software (Perkin Elmer Life and Analytical Sciences, Downers Grove, IL).

[7] = system: normal tissue injury following RT+cisplatin
Experimental: Mice were treated with 1×9Gy+6 mg/kg cisplatin.
(§2) A collimating cone that produced a 15 mm×40 mm radiation field was used to target the radiation beam to the salivary gland and oral cavity. The RT field included all major and minor salivary glands (located primarily in the neck region of mice), and the oral mucosa, including glands of the cheeks, lips and tongue. The target tissues were localized within the radiation field with a source-to-subject distance of 30.76 cm, using fluoroscopy at 40 kVp and 2.5 mA with a 2 mm Al filter. […] Control mice were anesthetized but not imaged fluoroscopically or irradiated.
Mucositis evaluation using fluorescence molecular tomography: As reported previously, we used ProSense 750EX (Perkin Elmer, Waltham, MA) to detect mucositis. ProSense 750EX is a near-infrared (NIR) imaging agent that is cleaved by cathepsins, a family of enzymes that are expressed during inflammation, (17). Mice were injected intravenously with 100 μL ProSense 750EX. Twenty-four hours after injection, mice were anesthetized via isoflurane and imaged using the Visen FMT 2500LX (Perkin Elmer). The ProSense 750EX signal was quantified using TrueQuant software (Perkin Elmer Life and Analytical Sciences, Downers Grove, IL).

[8] = system: FaDu (human pharyngeal carcinoma) cells
Experimental: For tumor control studies, female nu/nu mice were obtained from the Duke University Breeding Facility. Mice were group housed in a barrier facility and allowed to acclimate to their new environment for at least one week before experiments.
Tumor growth delay study: FaDu (human pharyngeal carcinoma) cells were obtained from the Duke University Cell Culture facility and were confirmed to be free of mycoplasma and known rodent pathogens. Cells were grown in Dulbecco's modified Eagle's medium with 10% fetal bovine serum. Mice were injected s.c. in the right flank with 3×10^6 cells suspended in 100 ml serum-free media. Seven days after implantation mice were randomized to treatment groups that received either MnBuOE (0.6 mg/kg loading dose followed by t.i.w. 0.3 mg/kg (loading/3× weekly maintenance) MnBuOE or an equivalent volume of saline. Tumors were measured daily with calipers and the volume was calculated using the equation V=(A^2×B×π)/6, where A is the shortest diameter and B is the longest diameter. As tumors reached 200 mm^3, they randomized into radiation treatment groups consisting of three daily fractions of radiation (6, 9, 12, 15 or 17 Gy/fraction) administered on three consecutive days. Cisplatin (6 mg/kg; APP pharmaceuticals, Schaumberg, IL) was injected intraperitoneally four hours prior to the first radiation fraction. […]

[9] = system: leukocyte-endothelial cell interactions; conditions: for Effect, repeated measures ANOVA of shear rates / Effect, repeated measures ANOVA of vessel diameter / Effect, repeated measures ANOVA of blood velocity: vs baseline (saline)
Experimental: (§3) MnBuOE synthesis and administration: MnBuOE was synthesized as previously described. […] Mouse injections were administered subcutaneously, with MnBuOE dissolved in sterile saline. Mice received an initial dose of 0.2, 0.6, or 2.0 mg/kg, followed by three times per week (t.i.w.) maintenance doses of one-half of the loading dose (i.e., 0.1, 0.3, or 1.0 mg/kg, respectively) (termed 2/1, 0.6/0.3 and 0.2/0.1 dosing schedules).
as §2
Mice were anesthetized with 80/8 mg/kg ketamine/xylazine mixture. Acridine orange (Sigma-Aldrich, St. Louis, MO) was injected intravenously (100 μl of 0.1% acridine orange in saline). The ventral surface of the tongue was placed on a glass cover slip before mounting the mouse onto a Zeiss Observer. Z1 (Carl Zeiss A G, Oberkochen, Germany) inverted microscope equipped with Zeiss Filter Set 38.
Fluorescent excitation was performed at 470 nm, and video was obtained at 525 nm using a 40× objective. Two separate regions with at least four veins in the […] range were identified, and a 60-120 second long video at 5 frames-per-second was obtained using Zen Imaging Software (Carl Zeiss A G, Oberkochen, Germany). Mice were kept warm while anesthetized using a heated stage.
Leukocyte-endothelial cell interaction analysis: All video analysis was performed in a blinded fashion. Rolling leukocytes were defined as cells that marginated along the vessel wall and were clearly dissociated from the bulk blood flow. Four vessels were analyzed per mouse. Leukocyte counting was repeated in triplicate for each vessel and averaged to obtain the flux of rolling leukocytes (Frolling). Vessel diameter (D) and the velocity of at least one free-flowing leukocyte(s) (VL) were also measured. A pseudo shear rate (gs) was also calculated for each vessel as: gs=8VL/D. These methods have been described previously. (18)

[10] = system: FaDu tumors; conditions: MnBuOE 1.5 mg/kg b.i.d.; five fractions of radiation (5-10 Gy/fraction); previous work (13); cited from earlier work
[11] = in vivo, 1.5 mg/kg
From the text: The magnitude of such oxidative modification is directly related to the levels of major reactive species involved in the process: H2O2 and MnBuOE.

[12] = system: xerostomia; conditions: 11 weeks post-RT (9 Gy); 2/1 mg/kg MnBuOE; vs unirradiated control
Experimental: Xerostomia quantification by stimulating saliva production: Mice were injected intraperitoneally with 3 μg carbomylcholine chloride (Sigma) dissolved in sterile phosphate-buffered saline. Salivation began 2 minutes after injection. Saliva was collected via pipette for 4 minutes. The volume was measured gravimetrically, assuming a density of 1 g/mL.

[13] = system: GSH/GSSG; conditions: MnBuOE 0.2 mg/kg 24 hours prior to RT (9 Gy); 24 hours post-RT
Experimental: as §3

Cn1nnc2c(C(N)=O)ncn2c1=O [TMZ, 8-Carbamoyl-3-methylimidazol[5,1-d]-1,2,3,5-tetrazine-4-(3H)-one]
bioavailable [1]: approximately 100% | patients who developed platelets below 100,000 ([2]; temozolomide + radiation without BMX-001, n=20): 9 out of 20 | Grade 3/4 non-hematological toxicity: Fatigue [3]: 7% | Grade 3/4 non-hematological toxicity: infection [3]: 3% | Grade 3/4 non-hematological toxicity: nausea and vomiting with a 5HT3-RA [3]: < 1% | Grade 3/4 non-hematological toxicity: other constitutional symptoms [3]: 2% | Grade 3/4 non-hematological toxicity: rash and dermatologic side effects [3]: 1% | Grade 3/4 non-hematological toxicity: vision [3]: 1% | Non-hematological grade 2 toxicity: Fatigue [3]: 26% | Non-hematological grade 2 toxicity: infection [3]: 1% | Non-hematological grade 2 toxicity: nausea and vomiting [3]: 13% | Non-hematological grade 2 toxicity: other constitutional symptoms [3]: 7% | Non-hematological grade 2 toxicity: rash and dermatologic side effects [3]: 9% | Non-hematological grade 2 toxicity: vision [3]: 14%

N.N.[Cl][Pt][Cl] [cisplatin]
stability of reconstituted solution [4]: 20 h

manganese butoxyethyl pyridyl porphyrin [BMX-001]
Trails Making B Test [5]: faster scores | performance on Hopkins Verbal Learning Test-Revised (HVLT-R) ([5]; loading 7-28 mg, half dose twice a week): no degradation of performance | NIR signal (mucositis signal) ([6]; day 11 post-RT, 9 Gy, 2/1 mg/kg MnBuOE s.c. (loading/t.i.w. maintenance), vs 0 Gy control): significantly increased | NIR signal (mucositis signal) ([6]; unirradiated mice, 2/1 mg/kg MnBuOE): did not show an appreciable NIR signal | patients who developed platelet counts below 100,000 ([2]; BMX-001+temozolomide + radiation, loading doses 7 mg to 28 mg/subject, N=9): None of the nine | NIR signal (mucositis) ([7]; 1×9 Gy + 6 mg/kg cisplatin, MnBuOE 0.6 mg/kg loading, t.i.w. 0.3 mg/kg for five weeks, vs saline plus RT+cisplatin): significantly less NIR signal | xerostomia (saliva production) ([7]; 10, 11 and 12 weeks, MnBuOE for the first five weeks after RT+cisplatin, data not shown): trend towards reduced xerostomia | body weight ([7]; 10 weeks post-RT+cisplatin, MnBuOE 0.6/0.3 mg/kg, vs unirradiated control mice): not significantly different | long-term ulcerations and moist desquamation in the irradiated area ([7]; RT+cisplatin, MnBuOE vs saline): lessened | Kaplan-Meier analysis (time to tripling of tumor volume), MnBuOE vs saline treated mice ([8]; 0.6/0.3 mg/kg, at any radiation dose): no significant differences | slope of the dose response curve of tumor inhibition (AUC of dynamic treatment effect curves), MnBuOE vs control arm ([8]; p-value=0.47): no significant difference | Effect, repeated measures ANOVA of shear rates ([9]; MnBuOE + RT (9 Gy)): −0.83 | Effect, repeated measures ANOVA of vessel diameter ([9]; MnBuOE + RT (9 Gy)): 0.002 | Effect, repeated measures ANOVA of blood velocity ([9]; MnBuOE + RT (9 Gy), 24 hours post-RT): 0.01 | Effect, repeated measures ANOVA of shear rates ([9]; MnBuOE alone): −20.88 | Effect, repeated measures ANOVA of vessel diameter ([9]; MnBuOE alone): 0.009 | Effect, repeated measures ANOVA of blood velocity ([9]; MnBuOE alone, 24 hours post sham RT): −0.00 | leukocyte rolling ([9]; MnBuOE treatment alone): without increasing leukocyte rolling | mean number of rolling leukocytes ([9]; combination of 0.2/0.1 MnBuOE and RT, 24 hours post-RT): decreases | dose-modifying effect (TCD50 curve) [10]: 1.3 | MnBuOE concentration in the tumor [11]: 1.5 to 2 µM | stimulated salivation (xerostomia) [12]: significant (p<0.05) decreases | GSH/GSSG lower than the 0 Gy MnBuOE tongue levels [13]: 4%

Reference: patent US12171769B2, “Methods, compositions, and kits for treating and/or preventing a side effect associated with radiation and/or chemotherapy exposure” (BioMimetix JV, LLC, priority 2017, dated 2024)
